Source: article PMC8571951, “An activity‐based bioprobe differentiates a novel small molecule inhibitor from a LOXL2 antibody and provides renewed promise for anti‐fibrotic therapeutic strategies” (Clinical and Translational Medicine, 2021)

Legend:
Format in all cases: biochemical
[1] = target: T1, rh LOXL2 (Homo sapiens, UniProt Q9Y4K0); assay: Jump dilution assay, rh LOXL2
T1 sequence (Q9Y4K0 26-774): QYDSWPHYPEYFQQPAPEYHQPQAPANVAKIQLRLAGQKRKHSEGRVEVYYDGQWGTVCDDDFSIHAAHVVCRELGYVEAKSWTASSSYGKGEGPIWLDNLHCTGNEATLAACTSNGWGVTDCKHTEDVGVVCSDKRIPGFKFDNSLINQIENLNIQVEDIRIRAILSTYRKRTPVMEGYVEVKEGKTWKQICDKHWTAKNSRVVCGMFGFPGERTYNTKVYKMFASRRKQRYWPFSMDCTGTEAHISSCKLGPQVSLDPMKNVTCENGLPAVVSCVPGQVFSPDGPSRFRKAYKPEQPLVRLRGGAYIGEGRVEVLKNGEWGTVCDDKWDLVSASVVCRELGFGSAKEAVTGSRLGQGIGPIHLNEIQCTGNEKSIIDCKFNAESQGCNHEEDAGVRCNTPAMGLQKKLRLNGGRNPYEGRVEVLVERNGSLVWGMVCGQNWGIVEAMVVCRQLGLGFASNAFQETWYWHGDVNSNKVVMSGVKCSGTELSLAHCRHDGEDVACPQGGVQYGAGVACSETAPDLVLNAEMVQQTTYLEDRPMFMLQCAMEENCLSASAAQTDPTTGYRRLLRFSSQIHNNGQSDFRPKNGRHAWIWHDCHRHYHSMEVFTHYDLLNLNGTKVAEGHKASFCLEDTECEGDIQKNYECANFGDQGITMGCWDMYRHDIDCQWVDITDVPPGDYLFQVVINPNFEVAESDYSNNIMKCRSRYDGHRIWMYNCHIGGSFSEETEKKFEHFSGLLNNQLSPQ
From the text: (§1) FIGURE 1 Characteristics of the activity‐based probe (ABP) PXS‐5878. (A) Chemical structure of PXS‐5878, with functional subunits denoted with different colours. The fluoroallylamine moiety (blue) was designed to interact with the lysine tyrosylquinone (LTQ) co‐factor within the lysyl oxidase active sites. An extended linker (green) was incorporated to provide optimal separation between the reactive functional group and the tag, avoiding unfavourable steric hindrance. Biotin was selected as a tag, with higher sensitivity found to be achieved using a double tag (red), resulting in PXS‐5878 as the preferred ABP. (B) Concentration‐dependent inhibition of recombinant human (rh) lysyl oxidase‐like 1‐4 (LOXL1‐4) and native bovine LOX in a standard Amplex Red assay with 30 min pre‐incubation; n = 3–4 independent experiments, standard error of mean (SEM). Native bovine LOX was used as a surrogate for human LOX as both enzymes have similar pharmacology for fluoroallylamines.[2], [9] (C) Irreversible nature of PXS‐5878 enzyme inhibition confirmed using a jump dilution assay. Enzyme (rh LOXL1, rh LOXL2 or LOXL3) was pre‐incubated with 10 × IC50 of PXS‐5878 for 30 min, then diluted 100x and remaining activity assessed by Amplex Red assay. […] Each value is an average of three experiments. (D) Schematic representation of the assay development to detect lysyl oxidase activity by PXS‐5878 using a direct enzyme‐linked assay with lysyl oxidases as the target analyte. HRP: horseradish peroxidase; TMB: 3,3′,5,5′‐tetramethylbenzidine, a chromogenic substrate. […]
For fluoroallylamine-based inhibitors, replacement of fluorine with hydrogen (leading to the corresponding des-fluoro structures) results in a drop in potency and a switch from irreversible to reversible inhibition. […] (B) For PXS-5878, removal of the fluoro moiety in a simplified analogue results in a significant drop in potency for LOXL2, meaning (ir)reversibility cannot be accurately measured.

[2] = target: T2, rh LOXL1 (Homo sapiens, UniProt Q08397); assay: Jump dilution assay, rh LOXL1; details: 10 × IC50 for 30 min, diluted 100x
T2 sequence (Q08397 96-574): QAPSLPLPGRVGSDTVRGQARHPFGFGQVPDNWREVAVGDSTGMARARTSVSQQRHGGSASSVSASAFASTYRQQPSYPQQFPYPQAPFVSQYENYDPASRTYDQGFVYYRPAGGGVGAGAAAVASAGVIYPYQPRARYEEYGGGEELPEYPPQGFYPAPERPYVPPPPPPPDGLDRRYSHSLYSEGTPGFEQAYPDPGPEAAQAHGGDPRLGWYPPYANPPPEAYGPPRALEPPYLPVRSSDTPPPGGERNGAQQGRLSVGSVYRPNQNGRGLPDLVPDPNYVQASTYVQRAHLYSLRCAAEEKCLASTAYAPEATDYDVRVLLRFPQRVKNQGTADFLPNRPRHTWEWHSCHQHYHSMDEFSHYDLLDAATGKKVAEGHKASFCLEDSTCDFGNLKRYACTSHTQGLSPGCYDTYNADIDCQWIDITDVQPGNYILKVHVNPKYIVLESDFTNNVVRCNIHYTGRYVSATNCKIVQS
From the text: as §1, with “experiments.” for “experiments. (D) Schematic representation of the assay development to detect lysyl oxidase activity by PXS‐5878 using a direct enzyme‐linked assay with lysyl oxidases as the target analyte. HRP: horseradish peroxidase; TMB: 3,3′,5,5′‐tetramethylbenzidine, a chromogenic substrate.”

[3] = target: T3, LOXL3 (Homo sapiens, UniProt P58215); assay: Jump dilution assay, LOXL3; details: 10 × IC50 for 30 min, diluted 100x
T3 sequence (P58215 26-753): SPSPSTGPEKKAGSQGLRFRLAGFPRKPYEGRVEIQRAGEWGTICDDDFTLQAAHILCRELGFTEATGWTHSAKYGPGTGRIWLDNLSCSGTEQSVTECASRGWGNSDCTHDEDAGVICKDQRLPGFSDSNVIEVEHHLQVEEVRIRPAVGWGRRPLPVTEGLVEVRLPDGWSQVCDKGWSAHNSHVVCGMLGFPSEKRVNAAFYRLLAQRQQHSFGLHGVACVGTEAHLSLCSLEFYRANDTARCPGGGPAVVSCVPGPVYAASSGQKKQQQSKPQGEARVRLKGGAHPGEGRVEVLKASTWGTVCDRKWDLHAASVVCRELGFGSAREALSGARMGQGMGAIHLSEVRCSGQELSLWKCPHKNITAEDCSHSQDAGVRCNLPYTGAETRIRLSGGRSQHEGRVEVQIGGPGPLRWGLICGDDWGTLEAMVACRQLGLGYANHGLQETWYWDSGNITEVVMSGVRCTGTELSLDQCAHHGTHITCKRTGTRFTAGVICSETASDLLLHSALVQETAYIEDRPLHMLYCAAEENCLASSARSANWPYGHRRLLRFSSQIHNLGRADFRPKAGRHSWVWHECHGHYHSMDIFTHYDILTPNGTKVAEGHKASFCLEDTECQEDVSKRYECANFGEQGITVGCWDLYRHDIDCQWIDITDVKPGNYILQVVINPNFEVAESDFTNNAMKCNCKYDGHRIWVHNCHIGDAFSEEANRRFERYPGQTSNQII
From the text: as §1, with “experiments.” for “experiments. (D) Schematic representation of the assay development to detect lysyl oxidase activity by PXS‐5878 using a direct enzyme‐linked assay with lysyl oxidases as the target analyte. HRP: horseradish peroxidase; TMB: 3,3′,5,5′‐tetramethylbenzidine, a chromogenic substrate.”

With `NC/C=C(\F)CS(=O)(=O)c1cccc(Cn2cc(-c3cc(OCCCc4cn(CCCCC[C@@H]5SC[C@@H]6NC(=O)N[C@@H]65)nn4)cc(OCCCc4cn(CCCCC[C@@H]5SC[C@@H]6NC(=O)N[C@@H]65)nn4)c3)nn2)c1` [PXS‐5878] the “Recovery of enzyme activity after jump dilution” value (from here on “Recovery of enzyme activity”) ([1]; rh LOXL2, 10 × IC50 for 30 min, diluted 100x) was “Little to no recovery in enzyme activity”, the “Recovery of enzyme activity” value [2] was “Little to no recovery in enzyme activity” and the “Recovery of enzyme activity” value [3] was “Little to no recovery in enzyme activity”.
For `CC(C)c1c(Cc2ccc(S(C)(=O)=O)nc2)c2ncccc2n1CC=CCN` [des‐fluoro‐PXS‐5338], the “Mode of inhibition (reversible/irreversible) of LOXL2” value [1] was “reversible inhibitor”.
